{"source": "patent US20260102359A1", "about": "“COMBINATION TREATMENT OF DERMAL AND TRANSDERMAL FIBROTIC DISEASES, DISORDERS AND ASSOCIATED PAIN AND INFLAMMATION” (ERESINA, LLC, priority 2022, published 2026)", "note": "Counter-ions that a name gives are not always drawn."}
{"tested_on": "hDMFa myofibroblast cells"}
{"smiles": "O=C(O)CCCCCCCCC(=O)O.O=C(O)CCCCCCCCC(=O)O", "note": "[Cmpd 858, sebacate (decanedioate)]", "Compound Myofibroblast Cytotoxicity Activity": "++"}
{"smiles": "Clc1ccc(C(Cn2ccnc2)OCc2csc3c(Cl)cccc23)c(Cl)c1", "note": "(centres unmarked) [Cmpd 860, Sertaconazole nitrate]", "Compound Myofibroblast Cytotoxicity Activity": "+++++"}
{"smiles": "CN[C@H]1CC[C@@H](c2ccc(Cl)c(Cl)c2)c2ccccc21", "note": "[Cmpd 861, Sertraline HCl]", "Compound Myofibroblast Cytotoxicity Activity": "++++"}
{"smiles": "CCCc1nn(C)c2c(=O)[nH]c(-c3cc(S(=O)(=O)N4CCN(C)CC4)ccc3OCC)nc12.CS(=O)(=O)O", "note": "[Cmpd 862, Sildenafil mesylate]", "Compound Myofibroblast Cytotoxicity Activity": "++"}
{"smiles": "CC(C)(C)C(=O)Oc1ccc(S(=O)(=O)Nc2ccccc2C(=O)NCC(=O)O)cc1", "note": "[Cmpd 866, Sivelestat (ONO-5046)]", "Compound Myofibroblast Cytotoxicity Activity": "++"}
{"smiles": "O=C([O-])c1ccccc1.[Na+]", "note": "[Cmpd 870, Sodium benzoate]", "Compound Myofibroblast Cytotoxicity Activity": "++++"}
{"smiles": "CCCCCCCCCCCCOS(=O)(=O)O", "note": "[Cmpd 871, Sodium dodecyl sulfate]", "Compound Myofibroblast Cytotoxicity Activity": "+++++"}
{"smiles": "O=P([O-])([O-])O.[Na+].[Na+]", "note": "[Cmpd 874, Sodium phosphate dibasic]", "Compound Myofibroblast Cytotoxicity Activity": "++++"}
{"smiles": "C[C@H](CCC(=O)NCCS(=O)(=O)[O-])[C@H]1CC[C@H]2[C@@H]3[C@@H](O)C[C@@H]4C[C@H](O)CC[C@]4(C)[C@H]3CC[C@]12C.[Na+]", "note": "[Cmpd 877, Sodium Tauroursodeoxycholate (TUDC)]", "Compound Myofibroblast Cytotoxicity Activity": "++"}
{"smiles": "C/C=C/C=C/C(=O)O", "note": "[Cmpd 881, Sorbic acid]", "Compound Myofibroblast Cytotoxicity Activity": "++"}
{"smiles": "OC[C@@H](O)[C@@H](O)[C@H](O)[C@@H](O)CO", "note": "[Cmpd 882, Sorbitol]", "Compound Myofibroblast Cytotoxicity Activity": "++++"}
{"smiles": "CC(C)NCC(O)c1ccc(NS(C)(=O)=O)cc1", "note": "(centres unmarked) [Cmpd 883, Sotalol hydrochloride]", "Compound Myofibroblast Cytotoxicity Activity": "+++"}
{"smiles": "CN1CCN(c2nc(C3=C(c4c[nH]c5ccccc45)C(=O)NC3=O)c3ccccc3n2)CC1", "note": "[Cmpd 884, Sotrastaurin (AEB071)]", "Compound Myofibroblast Cytotoxicity Activity": "++"}
{"smiles": "CN[C@@H]1[C@H](O)[C@H](NC)[C@H]2O[C@@]3(O)C(=O)C[C@@H](C)O[C@H]3O[C@@H]2[C@H]1O", "note": "[Cmpd 885, Spectinomycin (hydrochloride hydrate)]", "Compound Myofibroblast Cytotoxicity Activity": "+++"}
{"smiles": "NCCCNCCCCNCCCN", "note": "[Cmpd 887, Spermine]", "Compound Myofibroblast Cytotoxicity Activity": "++"}
{"smiles": "CCCCCCCCCCCCCCCCCC(=O)O", "note": "[Cmpd 889, Stearic Acid]", "Compound Myofibroblast Cytotoxicity Activity": "+++"}
{"smiles": "O=C(O)CCC(=O)Nc1ccc(S(=O)(=O)Nc2nccs2)cc1", "note": "[Cmpd 891, Succinylsulfathiazole]", "Compound Myofibroblast Cytotoxicity Activity": "++"}
{"smiles": "Nc1ccc(S(=O)(=O)NC(=O)c2ccccc2)cc1", "note": "[Cmpd 893, Sulfabenzamide]", "Compound Myofibroblast Cytotoxicity Activity": "++"}
{"smiles": "CC(=O)NS(=O)(=O)c1ccc(N)cc1", "note": "[Cmpd 894, Sulfacetamide sodium salt hydrate]", "Compound Myofibroblast Cytotoxicity Activity": "++"}
{"smiles": "Cc1ccnc(NS(=O)(=O)c2ccc(N)cc2)n1", "note": "[Cmpd 895, Sulfamerazine]", "Compound Myofibroblast Cytotoxicity Activity": "+++"}
{"smiles": "Cc1nnc(NS(=O)(=O)c2ccc(N)cc2)s1", "note": "[Cmpd 896, Sulfamethizole]", "Compound Myofibroblast Cytotoxicity Activity": "++++"}
{"smiles": "Nc1ccc(S(N)(=O)=O)cc1", "note": "[Cmpd 898, Sulfanilamide]", "Compound Myofibroblast Cytotoxicity Activity": "++++"}
{"smiles": "Nc1ccc(S(=O)(=O)Nc2ccnn2-c2ccccc2)cc1", "note": "[Cmpd 899, Sulfaphenazole]", "Compound Myofibroblast Cytotoxicity Activity": "+++"}
{"smiles": "Nc1ccc(S(=O)(=O)Nc2nccs2)cc1", "note": "[Cmpd 900, Sulfathiazole]", "Compound Myofibroblast Cytotoxicity Activity": "++++"}
{"smiles": "COc1cc(O)c(C(=O)c2ccccc2)cc1S(=O)(=O)O", "note": "[Cmpd 901, Sulisobenzone]", "Compound Myofibroblast Cytotoxicity Activity": "++"}
{"smiles": "CC1(C)S[C@@H]2[C@H](NC(=O)[C@H](N)c3ccccc3)C(=O)N2[C@H]1C(=O)OCOC(=O)[C@@H]1N2C(=O)C[C@H]2S(=O)(=O)C1(C)C", "note": "[Cmpd 902, Sultamicillin]", "Compound Myofibroblast Cytotoxicity Activity": "++"}
{"smiles": "Nc1c2c(nc3ccccc13)CCCC2", "note": "[Cmpd 906, Tacrine hydrochloride]", "Compound Myofibroblast Cytotoxicity Activity": "++++"}
{"smiles": "CC/C(=C(\\c1ccccc1)c1ccc(OCCN(C)C)cc1)c1ccccc1", "note": "[Cmpd 911, Tamoxifen Citrate]", "Compound Myofibroblast Cytotoxicity Activity": "+++"}
{"smiles": "Cc1coc2c1C(=O)C(=O)c1c-2ccc2c(C)cccc12", "note": "[Cmpd 912, Tanshinone I]", "Compound Myofibroblast Cytotoxicity Activity": "+++++"}
{"smiles": "Cc1coc2c1C(=O)C(=O)c1c-2ccc2c1CCCC2(C)C", "note": "[Cmpd 913, Tanshinone IIA]", "Compound Myofibroblast Cytotoxicity Activity": "+++++"}
{"smiles": "Cc1c(S(=O)(=O)[O-])oc2c1C(=O)C(=O)c1c-2ccc2c1CCCC2(C)C.[Na+]", "note": "[Cmpd 914, Tanshinone IIA---sulfonic sodium]", "Compound Myofibroblast Cytotoxicity Activity": "++"}
{"smiles": "Cn1nnc(-c2ccc(-c3ccc(N4C[C@H](CO)OC4=O)cc3F)cn2)n1", "note": "[Cmpd 920, Tedizolid HCl]", "Compound Myofibroblast Cytotoxicity Activity": "++++"}
{"smiles": "CO[C@H]1C[C@@H]2CC[C@@H](C)[C@@](O)(O2)C(=O)C(=O)N2CCCC[C@H]2C(=O)O[C@H]([C@H](C)C[C@@H]2CC[C@@H](OC(=O)C(C)(CO)CO)[C@H](OC)C2)CC(=O)[C@H](C)/C=C(\\C)[C@@H](O)[C@@H](OC)C(=O)[C@H](C)C[C@H](C)/C=C/C=C/C=C/1C", "note": "[Cmpd 924, Temsirolimus (CCl-779, NSC 683864)]", "Compound Myofibroblast Cytotoxicity Activity": "+++++"}
{"smiles": "COc1cc([C@@H]2c3cc4c(cc3[C@@H](O[C@@H]3O[C@@H]5CO[C@@H](c6cccs6)O[C@H]5[C@H](O)[C@H]3O)[C@H]3COC(=O)[C@H]23)OCO4)cc(OC)c1O", "note": "[Cmpd 925, Teniposide]", "Compound Myofibroblast Cytotoxicity Activity": "++"}
{"smiles": "CN(C/C=C/C#CC(C)(C)C)Cc1cccc2ccccc12", "note": "[Cmpd 926, Terbinafine]", "Compound Myofibroblast Cytotoxicity Activity": "++"}
{"smiles": "CN(C/C=C/C#CC(C)(C)C)Cc1cccc2ccccc12", "note": "[Cmpd 927, Terbinafine HCl]", "Compound Myofibroblast Cytotoxicity Activity": "++++"}
{"smiles": "CC(C)N1CCN(c2ccc(OCC3COC(Cn4cncn4)(c4ccc(Cl)cc4Cl)O3)cc2)CC1", "note": "(centres unmarked) [Cmpd 928, Terconazole]", "Compound Myofibroblast Cytotoxicity Activity": "++"}
{"smiles": "O=C(O)c1ccc(C(=O)O)cc1", "note": "[Cmpd 929, Terephthalic acid]", "Compound Myofibroblast Cytotoxicity Activity": "++"}
{"smiles": "CC1=CCC(O)(C(C)C)CC1", "note": "(centres unmarked) [Cmpd 931, Terpinen-4-ol]", "Compound Myofibroblast Cytotoxicity Activity": "++"}
{"smiles": "COc1cc2c(cc1OC)C1CC(=O)C(CC(C)C)CN1CC2", "note": "(centres unmarked) [Cmpd 933, Tetrabenazine]", "Compound Myofibroblast Cytotoxicity Activity": "+++"}
{"smiles": "COc1ccc2cc1Oc1ccc(cc1)C[C@H]1c3cc(c(OC)cc3CCN1C)Oc1c(OC)c(OC)cc3c1[C@H](C2)N(C)CC3", "note": "[Cmpd 936, Tetrandrine]", "Compound Myofibroblast Cytotoxicity Activity": "++"}
{"smiles": "Cc1cnc(Nc2ccc(OCCN3CCCC3)cc2)nc1Nc1cccc(S(=O)(=O)NC(C)(C)C)c1", "note": "[Cmpd 937, TG101348 (SAR302503)]", "Compound Myofibroblast Cytotoxicity Activity": "++++"}
{"smiles": "Cc1ncc(C[n+]2csc(CCO)c2C)c(N)n1.Cl.[Cl-]", "note": "[Cmpd 939, Thiamine HCl (Vitamin B1)]", "Compound Myofibroblast Cytotoxicity Activity": "++"}
{"smiles": "CSc1ccc2c(c1)N(CCC1CCCCN1C)c1ccccc1S2", "note": "(centres unmarked) [Cmpd 940, Thioridazine HCl]", "Compound Myofibroblast Cytotoxicity Activity": "++++"}
{"smiles": "Cc1cn([C@H]2C[C@H](O)[C@@H](CO)O2)c(=O)[nH]c1=O", "note": "[Cmpd 943, Thymidine]", "Compound Myofibroblast Cytotoxicity Activity": "++"}
{"smiles": "O=c1sn(-c2cccc3ccccc23)c(=O)n1Cc1ccccc1", "note": "[Cmpd 946, Tideglusib]", "Compound Myofibroblast Cytotoxicity Activity": "++"}
{"smiles": "Clc1ccc(C(Cn2ccnc2)OCc2ccsc2Cl)c(Cl)c1", "note": "(centres unmarked) [Cmpd 947, Tioconazole]", "Compound Myofibroblast Cytotoxicity Activity": "+++"}
{"smiles": "Nc1n[n+]([O-])c2ccccc2[n+]1[O-]", "note": "[Cmpd 948, Tirapazamine]", "Compound Myofibroblast Cytotoxicity Activity": "++++"}
{"smiles": "O=C(O)Cc1cc(I)c(Oc2ccc(O)c(I)c2)c(I)c1", "note": "[Cmpd 949, Tiratricol]", "Compound Myofibroblast Cytotoxicity Activity": "+++"}
{"smiles": "O=C1NC(=O)[C@@H](c2cn3c4c(cccc24)CCC3)[C@@H]1c1c[nH]c2ccccc12", "note": "[Cmpd 950, Tivantinib (ARQ 197)]", "Compound Myofibroblast Cytotoxicity Activity": "++"}
{"smiles": "Cc1ccc(S(=O)(=O)NC(=O)NN2CCCCCC2)cc1", "note": "[Cmpd 953, Tolazamide]", "Compound Myofibroblast Cytotoxicity Activity": "++++"}
{"smiles": "Cc1c(Cl)cccc1Nc1ccccc1C(=O)O", "note": "[Cmpd 955, Tolfenamic Acid]", "Compound Myofibroblast Cytotoxicity Activity": "++"}
{"smiles": "Cc1cccc(N(C)C(=S)Oc2ccc3ccccc3c2)c1", "note": "[Cmpd 956, Tolnaftate]", "Compound Myofibroblast Cytotoxicity Activity": "++++"}
{"smiles": "CN(C)CCOc1ccc(/C(=C(/CCCl)c2ccccc2)c2ccccc2)cc1", "note": "[Cmpd 959, Toremifene Citrate]", "Compound Myofibroblast Cytotoxicity Activity": "+++"}
{"smiles": "NCCCS(=O)(=O)O", "note": "[Cmpd 961, Tramiprosate]", "Compound Myofibroblast Cytotoxicity Activity": "+++++"}
{"smiles": "C/C=C/c1ccc(OC)cc1", "note": "[Cmpd 963, Trans-Anethole]", "Compound Myofibroblast Cytotoxicity Activity": "++"}
{"smiles": "Cl.N[C@@H]1C[C@H]1c1ccccc1", "note": "[Cmpd 964, Tranylcypromine hydrochloride]", "Compound Myofibroblast Cytotoxicity Activity": "++++"}
{"smiles": "CC1(C)CC(=O)CC(C)(C)N1", "note": "[Cmpd 967, Triacetonamine]", "Compound Myofibroblast Cytotoxicity Activity": "++"}
{"smiles": "N[C@@H](Cc1cc(I)c(Oc2ccc(O)c(I)c2)c(I)c1)C(=O)O", "note": "[Cmpd 972, Triiodothyronine]", "Compound Myofibroblast Cytotoxicity Activity": "++"}
{"smiles": "C[C@]12CC[C@H]3[C@@H](CC[C@@]45O[C@@H]4C(O)=C(C#N)C[C@]35C)[C@@H]1CC[C@@H]2O", "note": "[Cmpd 973, Trilostane]", "Compound Myofibroblast Cytotoxicity Activity": "++"}
{"smiles": "COc1cc(C(=O)NCc2ccc(OCCN(C)C)cc2)cc(OC)c1OC.Cl", "note": "[Cmpd 974, Trimethobenzamide hydrochloride]", "Compound Myofibroblast Cytotoxicity Activity": "++"}
{"smiles": "CC(CN(C)C)CN1c2ccccc2CCc2ccccc21.O=C(O)/C=C\\C(=O)O", "note": "(centres unmarked) [Cmpd 975, Trimipramine (maleate)]", "Compound Myofibroblast Cytotoxicity Activity": "++"}
{"smiles": "Cc1c(C)c2c(c(C)c1O)CCC(C)(COc1ccc(CC3SC(=O)NC3=O)cc1)O2", "note": "(centres unmarked) [Cmpd 976, Troglitazone]", "Compound Myofibroblast Cytotoxicity Activity": "+++"}
{"smiles": "Cc1[nH]c(/C=C2\\C(=O)Nc3ccccc32)c(C)c1CCC(=O)O", "note": "[Cmpd 979, TSU-68 (SU6668, Orantinib)]", "Compound Myofibroblast Cytotoxicity Activity": "++"}
{"smiles": "NCCc1ccc(O)cc1", "note": "[Cmpd 981, Tyramine]", "Compound Myofibroblast Cytotoxicity Activity": "++"}
